Entries after “also recorded” stand apart in the source; their conditions may differ. Where two headings read alike, the source gives them in different places. Each block holds one compound with its values, some of them ahead of it.
Key:
[1] = cited from earlier work
[2] = Phase 1 open-label crossover study: safety (adverse events); assay type: in vivo, human (healthy subjects)
Description: The Safety population was defined as subjects who received any amount of pirfenidone or ciprofloxacin.

[3] = target: CYP1A2 (Homo sapiens, UniProt P05177); settings: in vitro experiments; cited from earlier work
CYP1A2, sequence (P05177 whole entry): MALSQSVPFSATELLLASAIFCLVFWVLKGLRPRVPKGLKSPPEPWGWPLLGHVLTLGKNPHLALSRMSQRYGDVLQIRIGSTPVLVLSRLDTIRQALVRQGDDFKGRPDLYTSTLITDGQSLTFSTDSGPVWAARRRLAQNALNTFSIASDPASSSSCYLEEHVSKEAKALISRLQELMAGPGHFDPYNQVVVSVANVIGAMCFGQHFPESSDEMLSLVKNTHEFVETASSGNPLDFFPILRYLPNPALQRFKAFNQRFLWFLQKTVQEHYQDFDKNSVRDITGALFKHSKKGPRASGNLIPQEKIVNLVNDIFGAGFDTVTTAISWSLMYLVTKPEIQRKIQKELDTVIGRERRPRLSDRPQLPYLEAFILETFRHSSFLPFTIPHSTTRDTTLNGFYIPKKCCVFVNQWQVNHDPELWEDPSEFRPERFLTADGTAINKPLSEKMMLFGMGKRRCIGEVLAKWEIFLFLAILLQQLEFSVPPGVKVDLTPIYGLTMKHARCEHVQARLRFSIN

[4] = clinical; settings: human, in vivo, po; for AUC(0-inf): AUC0-∞
Description: 750-mg tablets orally, as follows: • Day 2: 750 mg in the evening • Days 3-6: 750 mg twice a day (BID) • Day 7: 750 mg in the morning.
Both noncompartmental methods and a previously derived population PK (i.e., compartmental) model were used to analyze the plasma concentration-time data and characterize individual subject PK parameters.

[5] = Ciprofloxacin-pirfenidone in vitro-in vivo extrapolation (IVIVE) simulations of pirfenidone AUC change; settings: from in vitro and in vivo data coupled with IVIVE simulations
Description: In brief, the process involves combining in vitro knowledge regarding the properties of a potential inhibitor [IC50 values for various cytochrome P450 (CYP) enzymes] with the in vitro knowledge regarding the pathways of metabolism of a given substrate (fraction metabolized by various CYP enzymes).

[6] = Ratio of Day 6/7 (during ciprofloxacin dosing) to Day 1/2 (pre-ciprofloxacin dosing), N = 27
[7] = plasma, single 801 mg oral pirfenidone with food, Study Day 1/2 (Pre-Ciprofloxacin), N = 27
[8] = plasma, single 801 mg oral pirfenidone with food, Study Day 6/7 (During Ciprofloxacin 750 mg BID), N = 27

- AUC0-∞ Geometric Mean Ratio (90% Confidence Interval) [6]: 0.96 (0.92, 1.00)
- Cmax Geometric Mean Ratio (90% Confidence Interval) [6]: 0.62 (0.57, 0.66)
- AUC0-∞ Day 6/7 geometric mean lower than on Day 1/2 (after 801 mg pirfenidone): 7.7%
- Cmax lower with ciprofloxacin coadministration on Day 6/7 than Day 1/2 (after 801 mg pirfenidone): 40%
- AUC0-∞, Geometric Mean [7]: 32600 ng·h/mL
- AUC0-∞, Mean (SD) [7]: 30.9 (4.74) μg*hr/mL
- AUC0-∞, Median [7]: 30300 ng·h/mL
- Cmax, Geometric Mean [7]: 6500 ng/mL
- Cmax, Mean (SD) [7]: 6.1 (1.44) μg/mL
- Cmax, Median [7]: 5700 ng/mL
- T1/2 (apparent terminal elimination half-life), Geometric Mean [7]: 2.6 h
- T1/2, Mean (SD) [7]: 2.7 (0.73) h
- Tmax, Geometric Mean [7]: 2.2 h
- Tmax, Mean (SD) [7]: 2.3 (0.6) h
- Tmax, Median [7]: 2 h
- AUC0-∞, Geometric Mean [8]: 30100 ng·h/mL
- AUC0-∞, Mean (SD) [8]: 29.6 (4.52) μg*hr/mL
- AUC0-∞, Median [8]: 29100 ng·h/mL
- Cmax, Geometric Mean [8]: 3800 ng/mL
- Cmax, Mean (SD) [8]: 3.8 (0.8) μg/mL
- Cmax, Median [8]: 3800 ng/mL
- T1/2 (apparent terminal elimination half-life), Geometric Mean [8]: 4 h
- T1/2, Mean (SD) [8]: 4.2 (0.93) h
- T1/2, Median [8]: 4 h
- Tmax, Geometric Mean [8]: 2.1 h
- Tmax, Mean (SD) [8]: 2 (0.76) h
- Tmax, Median [8]: 2 h
- T1/2 (apparent terminal elimination half-life), Geometric Mean (plasma, single 801 mg oral pirfenidone with food, Study Day 6/7 (During Ciprofloxacin 750 mg BID), N = 27, listed as 5-carboxy-pirfenidone): 4.0 h
SMILES: O=C(O)c1ccc(=O)n(-c2ccccc2)c1 [5-Carboxy-Pirfenidone, 5-carboxy-pirfenidone]

SMILES: O=C(O)c1cn(C2CC2)c2cc(N3CCNCC3)c(F)cc2c1=O [Ciprofloxacin, 1-cyclopropyl-6-fluoro-1,4-dihydro-4-oxo-7-(1-piperazinyl)-3-quinolinecarboxylic acid]
- [I]in, u (free-drug concentration of the inhibitor entering the liver) ([1]; Ciprofloxacin 250 mg BID): 52
- [I]in, u (free-drug concentration of the inhibitor entering the liver) ([1]; Ciprofloxacin 500 mg BID): 52
- [I]in, u (free-drug concentration of the inhibitor entering the liver) ([1]; ciprofloxacin 750 mg BID): 78

- T1/2, Min, Max (human, in vivo, po): 2.8, 5.6
- Tmax, Min, Max (human, in vivo, po): 1, 4.1
- AUC0-∞, Min, Max (human, in vivo, po, 801 mg): 30, 88.2
- Cmax, Min, Max (human, in vivo, po, 801 mg): 6.6, 14.4
- T1/2, Min, Max (human, in vivo, po, 801 mg): 1.4, 3.6
- Tmax, Min, Max (human, in vivo, po, 801 mg): 1, 3
- AUC(0-inf) ([4]; 801 mg, Geometric Mean): 50800 ng·h/mL
- AUC(0-inf) ([4]; 801 mg, Mean (SD)): 51900 ng·h/mL
- AUC(0-inf) ([4]; 801 mg, Median): 53200 ng·h/mL
- Cmax ([4]; 801 mg, Geometric Mean): 10700 ng/mL
- Cmax ([4]; 801 mg, Mean (SD)): 10400 ng/mL
- Cmax ([4]; 801 mg, Median): 10400 ng/mL
- half-life ([4]; 801 mg, T1/2 (apparent terminal elimination half-life), Geometric Mean): 2.4 h
- half-life ([4]; 801 mg, T1/2, Mean (SD)): 2.5 h
- Tmax ([4]; 801 mg, Geometric Mean): 2.2 h
- Tmax ([4]; 801 mg, Mean (SD)): 2.2 h
- Tmax ([4]; 801 mg, Median): 2 h
- half-life ([4]; T1/2 (apparent terminal elimination half-life), Geometric Mean): 4.1 h
- half-life ([4]; T1/2, Mean (SD)): 4 h
- half-life ([4]; T1/2, Median): 4 h
- Tmax ([4]; Geometric Mean): 2.3 h
- Tmax ([4]; Mean (SD)): 2.6 h
- Tmax ([4]; Median): 2 h
- share of in vivo metabolism of pirfenidone for which CYP1A2 is responsible [5]: 70-80%
SMILES: Cc1ccc(=O)n(-c2ccccc2)c1 [Pirfenidone, 5-methyl-1-phenyl-2-(1H)-pyridone]
- subjects whose strongest AE relationship was probably related to pirfenidone ([2]; as assessed by the investigator): 6 subjects
- subjects with pirfenidone-related AEs only on Day 6 ([2]; coadministration with ciprofloxacin): 5 subjects
- subjects with AEs considered related to pirfenidone on Day 1 ([2]; dosing with pirfenidone only): One
- CYP isoform metabolizing pirfenidone in vitro [3]: primarily metabolized by CYP1A2; also recorded: predominantly carried out by CYP1A2
